Reference: patent US10131652B2, “Pyrimidinyloxy benzene derivatives as herbicides” (E. I. DU PONT DE NEMOURS AND COMPANY, priority 2014, dated 2018)

Key:
Format in all cases: in vivo
[1] = system: barnyardgrass (Echinochloa crus-galli); test: Test B pre-/postemergence plant response
How it was run: (§1)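 Ratings reflect visual injury versus untreated controls, from 0 for no effect to 100 for complete control, assessed roughly 10 days after treatment. Formulation: non-phytotoxic solvent mix with surfactant; pre- and postemergence sprays on plants grown in loam soil and sand.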

[2] = system: Italian ryegrass (Lolium multiflorum); test: Test B pre-/postemergence plant response
How it was run: as §1

[3] = system: wheat (Triticum aestivum); test: Test B pre-/postemergence plant response
How it was run: as §1

[4] = system: pigweed (Amaranthus retroflexus); test: Test B pre-/postemergence plant response
How it was run: as §1

corn (Zea mays) = test: Test B pre-/postemergence plant response
How it was run: as §1

[5] = system: ragweed (common ragweed, Ambrosia elatior); test: Test B pre-/postemergence plant response
How it was run: as §1

kochia (Kochia scoparia) [6] = test: Test B pre-/postemergence plant response
How it was run: as §1

[7] = system: giant foxtail (Setaria faberii); test: Test B pre-/postemergence plant response
How it was run: as §1

[8] = system: galium (catchweed bedstraw, Galium aparine); test: Test B postemergence plant response
How it was run: (§2)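 Seedlings in a loam soil and sand mix received a postemergence application of the formulated chemicals at the one- to two-leaf stage (2–10 cm tall). They were kept in a greenhouse for roughly 10 days, then scored for injury relative to untreated plants, 0 meaning no effect and 100 complete control.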

[9] = system: blackgrass (Alopecurus myosuroides); test: Test B postemergence plant response
How it was run: as §2

wild oat (Avena fatua) = test: Test D postemergence plant response
How it was run: (§3)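 Postemergence spray on plants 2–18 cm tall (1- to 4-leaf stage), grown in pots of peat/vermiculite medium. Plants were kept in a greenhouse for 13–15 days, then visually rated against untreated controls on a 0 (no effect) to 100 (complete control) scale.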

[10] = system: chickweed (common chickweed, Stellaria media); test: Test D postemergence plant response; details: for Plant response rating, Chickweed: scale 0 to 100, 0 no effect, 100 complete control
How it was run: as §3

kochia (Kochia scoparia) [11] = test: Test D postemergence plant response; details: for Plant response rating, Kochia: scale 0 to 100, 0 no effect, 100 complete control
How it was run: as §3

[12] = system: barnyardgrass (Echinochloa crus-galli); test: Test C flooded paddy test plant response; details: Flood, 250 g ai/ha; scale of 0 to 100 where 0 is no effect and 100 is complete control; 13 to 15 days
How it was run: (§4)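 Scored visually on a 0–100 scale (100 = complete control) against untreated plants 13 to 15 days after treatment in the greenhouse. Compounds went into paddy water of pots flooded to 3 cm, holding 2-leaf-stage plants.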

[13] = system: small-flower umbrella sedge (Cyperus difformis); test: Test C flooded paddy test plant response; details: Flood, 250 g ai/ha; scale of 0 to 100 where 0 is no effect and 100 is complete control; 13 to 15 days
How it was run: as §4

[14] = system: ducksalad (Heteranthera limosa); test: Test C flooded paddy test plant response; details: Flood, 250 g ai/ha; scale of 0 to 100 where 0 is no effect and 100 is complete control; 13 to 15 days
How it was run: as §4

rice (Oryza sativa) = test: Test C flooded paddy test plant response; details: Flood, 250 g ai/ha; scale of 0 to 100 where 0 is no effect and 100 is complete control; 13 to 15 days
How it was run: as §4

[15] = 31 g ai/ha, Preemergence, 0 to 100 scale where 0 is no effect and 100 is complete control
[16] = 125 g ai/ha, postemergence, 0 to 100 scale, 0 no effect, 100 complete control
[17] = Postemergence, 31 g ai/ha, 0 to 100 scale (0 no effect, 100 complete control)
[18] = Preemergence, 125 g ai/ha, 0 to 100 scale (0 no effect, 100 complete control)
[19] = 31 g ai/ha, scale 0 to 100 (0 no effect, 100 complete control)

CC(F)(F)c1cc(-c2ccccc2Oc2ncc(Cl)cn2)no1 [Compound 220]
40: Plant response rating, Barnyardgrass [1, 16] | Plant response rating, Ryegrass, Italian [2, 16] | Plant response rating (scale 0 to 100), Chickweed ([10]; 8 g ai/ha) | Plant response rating (scale 0 to 100), Chickweed ([10]; 16 g ai/ha)
90: Plant response rating, Kochia (kochia (Kochia scoparia) [6]; [17]) | Kochia plant response rating (kochia (Kochia scoparia) [6]; [18]) | Plant response rating, Galium [8, 17] | Plant response rating, Blackgrass [9, 16]
75: Sedge, Umbrella plant response rating [13]
0: Plant response rating, Ryegrass, Italian [2, 15] | Plant response rating, Ryegrass, Italian [2, 17] | Plant response rating, Ragweed [5, 15] | Plant response rating, Ragweed [5, 17] | Plant response rating (scale 0 to 100), Oat, Wild (wild oat (Avena fatua); 2 g ai/ha) | Plant response rating (scale 0 to 100), Oat, Wild (wild oat (Avena fatua); 4 g ai/ha) | Plant response rating (scale 0 to 100), Oat, Wild (wild oat (Avena fatua); 8 g ai/ha) | Rice plant response rating (rice (Oryza sativa))
30: Ryegrass, Italian plant response rating [2, 18] | Plant response rating, Foxtail, Giant [7, 17]
60: Plant response rating, Blackgrass [9, 17]
5: Plant response rating (scale 0 to 100), Oat, Wild (wild oat (Avena fatua); 16 g ai/ha) | Plant response rating (scale 0 to 100), Chickweed ([10]; 2 g ai/ha)
50: Plant response rating, Wheat [3, 16] | Plant response rating, Kochia (kochia (Kochia scoparia) [6]; [15]) | Plant response rating (scale 0 to 100), Kochia (kochia (Kochia scoparia) [11]; 4 g ai/ha)
80: Plant response rating, Foxtail, Giant [7, 16] | Ducksalad plant response rating [14]
20: Plant response rating, Corn (corn (Zea mays); [16]) | Plant response rating (scale 0 to 100), Kochia (kochia (Kochia scoparia) [11]; 2 g ai/ha) | Barnyardgrass plant response rating [12]
100: Barnyardgrass plant response rating [1, 18] | Plant response rating, Pigweed [4, 15] | Plant response rating, Pigweed [4, 16] | Plant response rating, Pigweed [4, 17] | Pigweed plant response rating [4, 18] | Plant response rating, Kochia (kochia (Kochia scoparia) [6]; [16]) | Foxtail, Giant plant response rating [7, 18] | Plant response rating, Galium [8, 16] | Plant response rating (scale 0 to 100), Kochia (kochia (Kochia scoparia) [11]; 8 g ai/ha) | Plant response rating (scale 0 to 100), Kochia (kochia (Kochia scoparia) [11]; 16 g ai/ha)
70: Plant response rating, Foxtail, Giant [7, 15]
10: Plant response rating, Barnyardgrass [1, 15] | Plant response rating, Barnyardgrass [1, 17] | Plant response rating, Wheat [3, 17] | Plant response rating, Corn (corn (Zea mays); [17]) | Plant response rating, Ragweed [5, 16] | Ragweed plant response rating [5, 18] | Plant response rating (scale 0 to 100), Chickweed ([10]; 4 g ai/ha)

Fc1ccc(Oc2ncc(Cl)cn2)c(-c2cc(C(F)(Cl)Cl)on2)c1 [Compound 221]
50: Plant response rating, Corn (corn (Zea mays); [16]) | Plant response rating, Ragweed [5, 16] | Plant response rating, Kochia (kochia (Kochia scoparia) [6]; [15]) | Plant response rating, Foxtail, Giant [7, 15]
35: Plant response rating, Oat, Wild (wild oat (Avena fatua); 125 g ai/ha, scale 0 to 100, 0 no effect, 100 complete control)
85: Chickweed plant response rating [10, 19]
80: Plant response rating, Kochia (kochia (Kochia scoparia) [6]; [17]) | Plant response rating, Chickweed ([10]; 62 g ai/ha)
100: Plant response rating, Pigweed [4, 15] | Pigweed plant response rating [4, 18] | Plant response rating, Kochia (kochia (Kochia scoparia) [6]; [16]) | Plant response rating, Galium [8, 16] | Plant response rating, Chickweed ([10]; 125 g ai/ha) | Kochia plant response rating (kochia (Kochia scoparia) [11]; [19]) | Plant response rating, Kochia (kochia (Kochia scoparia) [11]; 62 g ai/ha) | Plant response rating, Kochia (kochia (Kochia scoparia) [11]; 125 g ai/ha) | Ducksalad plant response rating [14]
0: Plant response rating, Ryegrass, Italian [2, 17] | Plant response rating, Ragweed [5, 15] | Ragweed plant response rating [5, 18] | Barnyardgrass plant response rating [12] | Rice plant response rating (rice (Oryza sativa))
70: Kochia plant response rating (kochia (Kochia scoparia) [6]; [18])
10: Plant response rating, Barnyardgrass [1, 17] | Plant response rating, Ragweed [5, 17] | Plant response rating, Foxtail, Giant [7, 17] | Oat, Wild plant response rating (wild oat (Avena fatua); [19]) | Oat, Wild plant response rating (wild oat (Avena fatua); 62 g ai/ha, scale 0 to 100, 0 no effect, 100 complete control)
95: Sedge, Umbrella plant response rating [13]
98: Plant response rating (scale 0 to 100), Kochia (kochia (Kochia scoparia) [11]; 16 g ai/ha)
60: Plant response rating, Blackgrass [9, 16]
20: Plant response rating, Barnyardgrass [1, 15] | Plant response rating, Ryegrass, Italian [2, 15] | Plant response rating, Wheat [3, 17] | Plant response rating, Corn (corn (Zea mays); [17])
90: Plant response rating, Barnyardgrass [1, 16] | Barnyardgrass plant response rating [1, 18] | Plant response rating, Pigweed [4, 16] | Plant response rating, Pigweed [4, 17] | Plant response rating, Foxtail, Giant [7, 16] | Foxtail, Giant plant response rating [7, 18] | Plant response rating, Galium [8, 17]
30: Plant response rating, Wheat [3, 16] | Plant response rating, Blackgrass [9, 17]
75: Plant response rating (scale 0 to 100), Chickweed ([10]; 16 g ai/ha)
40: Plant response rating, Ryegrass, Italian [2, 16] | Ryegrass, Italian plant response rating [2, 18]
5: Plant response rating (scale 0 to 100), Oat, Wild (wild oat (Avena fatua); 16 g ai/ha)
